Reference: US20080176810A1, “Use of 3, 4', 5-Trihydroxy-Stilbene-3-Beta-D-glucoside in Prepartion of Medicines For Treating and/or Preventing Ischemic Heart Disease” (SHENZHEN NEPTUNUS PHARMACEUTICAL CO., LTD., priority 2004, published 2008)

Columns and labels:
platelet aggregation = conditions: 6~100 μmol/L TSG; cited from earlier work
[1] = test system: chronic myocardial ischemia; test: Chronic myocardial ischemia in rats, intragastric administration; format: in vivo, SD rats; conditions: TSG 20 mg/kg intragastric, 6 weeks
Description: (1) Operation and Coronary artery ligation of Animal: 60 male SD rats, divided into two groups: 15 in sham operation group and 45 in operation group, were immobilized on their backs by anesthesia of urethane ip at the dose of 100 mg/kg. Electrocardiograph (ECG-6851C, made by Shanghai Photoelectrical & Electronic Medical Apparatus Co., Ltd.) was used to record II lead electrocardiogram. Tracheal intubation was performed and connected into an artificial respirator and thoracotomy was performed at the fourth intercostal space of left sternal border after the skin sterilization. With exposure of the heart, the ligation was conducted at 3-4 mm of the root of left anterior descending coronary artery. ECG was monitored during the whole process and the graph showing significant elevation and depression of ST segment as well as the elevated T-wave amplitude was viewed as the indexes for the success of coronary artery ligation. After the ligation, thorax was closed and the air was drawn out. Regular feeding was continued after the operation, and the intramuscular injection of Penicillin was performed to prevent infection in 1 week after the operation. Thoracotomy was performed in sham operation group without coronary artery ligation.
(2) Groups and administration: 5 weeks later, there were 11 rats survived in sham operation group, and 24 rats in operation group. […] Starting from the sixth week, drugs were administered 6 days per week, and continued for 6 weeks, but withdrawn on Sundays. The volume of the drug administered was 5 ml/kg.
(1) Evaluation of therapeutic effect: Therapeutic effect was evaluated at the 12th week after the operation. 30 min after the final administration, rats were immobilized on their backs and tracheal intubation was performed. Arteria Femoralis was separated or insertion of a catheter to record artery blood pressure. A cardiac catheter was inversely guided into left ventricular from right common carotid artery. Both catheters were connected with pressure sensor, and then the pressure signals were input into an electrophysiolograph Powerlab system 8s (ML785/8S, AD Instruments, made in Australia) after being amplified with carriers. Needle electrodes were subcutaneously inserted into four limbs to monitor the standard two lead ECG. A computer (chart4.12 software, ML785/8S, AD Instruments, made in Australia) was used to monitor and store data. Thirty min after the operation, heart rate (HR), blood pressure (BPm), left ventricular systolic pressure (LVSP), left ventricular diastolic pressure (LVDP), the maximal rate of left intraventricular pressure changes (+dp/dtmax), left ventricular end-diastolic pressure (LVEDP), ECG were observed. One hour later, animals were executed, and their left ventriculars were taken out. The left hearts were cut into slices of 5 mm in thickness, which were cleaned with normal saline and put into 0.025% nitroblue tetrazolium (N-BT, made by Swiss Fluka Chemistry Company) at 37° C. for staining. Normal myocardium was dyed into dark blue, and the myocardium in infarction area was not dyed, remaining still light-yellow. The infarction area was isolated from normal myocardium under an anatomic microscopy and the both weighed, separatively. The percentage (%) of the weight of infarct area to the weight of the whole was regarded as the index for measurement of the area of myocardial infarction.
Test results was expressed in x±s. […]

For “3,4′,5-trihydroxy-stilbene-3-β-D-glucoside [TSG]”, the “platelet aggregation and production of thromboxane B2 induced by arachidonic acid, adenosine diphosphate and adrenalin” value (platelet aggregation) is listed as “inhibited”, the “+dp/dt max” value [1] is listed as 1389 ± 142^Δ Kpa/s and the BP [1] is listed as 19.2 ± 1.8^Δ KPa. The HR [1] was 354 ± 45^Δ p/min, the LVEDP [1] was 0.82 ± 0.19^Δ KPa and the LVSP [1] was 19.8 ± 2.1^Δ KPa.
